# Values of other authors, collected in patent US5122376A, “Calcitonin gene related peptide” (ISF Societa per Azioni, priority 1989, dated 1992).
# Settings: compared with sodium caprate
smiles,measurement,value
CC1(C)[C@@H](O)CC[C@]2(C)[C@H]3C(=O)C=C4[C@@H]5C[C@@](C)(C(=O)[O-])CC[C@]5(C)CC[C@@]4(C)[C@]3(C)CC[C@@H]12.[Na+] [sodium glycyrrhetinate],absorption-enhancing agent for insulin (nasal absorption),weaker than sodium caprate
